Results published in patent US4413005A, “Carbamate derivatives and insecticidal, miticidal or nematocidal compositions containing the same” (priority 1981, dated 1983).

Columns and labels:
[1] = system: tobacco cutworm (Spodoptera litura); test: Mortality of third-instar larvae of tobacco cutworm on cabbage (Test Example 1); format: in vivo; conditions: 72 h
Protocol: Ten third-instar larvae of tobacco cutworm (Spodoptera litura) were placed on a cabbage (one-month-old seedling) planted in a pot, and a 50% emulsion of the compound to be tested was diluted to a specified concentration and applied to the leaves of the plant to fully wet them. The test compound of each specified concentration was tested on two pots.

[2] = system: green rice leafhopper (Nephotettix cincticeps); test: Mortality of female adults of green rice leafhopper on paddy rice (Test Example 2); format: in vivo; conditions: 72 h
Protocol: An emulsion of specified concentration was prepared from a 50% wettable powder of the compound to be tested and applied to the leaves of paddy rice (one-month-old seedlings) planted in a pot to fully wet the leaves. After the emulsion had been dried, the pot was covered with a net cage, into which 10 female adults of green rice leafhopper (Nephotettix cincticeps) were released. The compound of each specified concentration was tested on two pots.

[3] = system: house fly (Musca domestica); test: Local application to house fly, LD50 by Probit method (Test Example 4); format: in vivo; conditions: topical, 24 h
Protocol: The compound to be tested was dissolved in a predetermined amount of acetone. The solution was diluted to various concentrations and locally applied to house fly (Musca domestica).

[4] = Acute oral toxicity in male mice, LD50 by Litchfield-Wilcoxon method (Test Example 5); conditions: mouse, in vivo, mortality on the seventh day
Protocol: Compounds of this invention were tested on male mice for acute toxicity by oral administration.

Compound	mortality at 500 ppm [1] [%]	mortality at 1000 ppm [1] [%]	mortality at 2000 ppm [1] [%]	mortality at 200 ppm [2] [%]	mortality at 400 ppm [2] [%]	mortality at 800 ppm [2] [%]	LD50 [3] [mg/kg]	LD50 at 168 h [4] [mg/kg]
CN(SN(CC#N)c1ccccc1)C(=O)Oc1cccc2c1OC(C)(C)C2 [Example 35]	65	80	100	60	75	95	65.6	95
Cc1ccc(N(CC#N)SN(C)C(=O)Oc2cccc3c2OC(C)(C)C3)cc1 [Example 36]	65	80	100	60	75	95	59.3	70
CN(CCC#N)SN(C)C(=O)Oc1cccc2c1OC(C)(C)C2 [Example 37]	70	85	100	65	85	100	11.8	65
CC(C)N(CCC#N)SN(C)C(=O)Oc1cccc2c1OC(C)(C)C2 [Example 38]	75	90	100	70	90	100	17.5	125
CCCCN(CCC#N)SN(C)C(=O)Oc1cccc2c1OC(C)(C)C2 [Example 39, 2,3-Dihydro-2,2-dimethylbenzofuran-7-yl N-(N-n-butyl-N-cyanoethylaminosulfenyl)-N-methyl-carbamate]	75	90	100	70	90	100	13.7	110
CC(C)CN(CCC#N)SN(C)C(=O)Oc1cccc2c1OC(C)(C)C2 [Example 40]	75	85	100	70	85	100	37.9	103
CCCCCCCCN(CCC#N)SN(C)C(=O)Oc1cccc2c1OC(C)(C)C2 [Example 41]	65	80	100	60	75	95	54.6	105
CN(SN(CCC#N)C1CCCCC1)C(=O)Oc1cccc2c1OC(C)(C)C2 [Example 42]	70	85	100	65	85	100	46	88
CCOC(=O)CN(SN(C)C(=O)Oc1cccc2c1OC(C)(C)C2)C(=O)CC [Example 43, 2,3-dihydro-2,2-dimethylbenzofuran-7-yl N-(N-propionyl-N-ethoxycarbonylmethylaminosulfenyl)-N-methyl-carbamate]	70	85	100	60	85	100	14.4	43
CCOC(=O)CN(SN(C)C(=O)Oc1cccc2c1OC(C)(C)C2)C(=O)OCC [Example 44, 2,3-dihydro-2,2-dimethylbenzofuran-7-yl N-(N-ethoxycarbonyl-N-ethoxycarbonylmethylaminosulfenyl)-N-methyl-carbamat]	75	90	100	70	90	100	16.2	128
CCOC(=O)CN(SN(C)C(=O)Oc1cccc2c1OC(C)(C)C2)C(=O)CCl [Example 45]	75	90	100	65	90	100	29.2	80
CCOC(=O)CN(SN(C)C(=O)Oc1cccc2c1OC(C)(C)C2)C(=O)c1ccccc1 [Example 46]	70	85	100	65	85	100	33.2	105
